# Reference: publication PMC11822746, “Nanoscale Hydrophobicity of Transport Barriers in the Nuclear Pore Complex as Compared with the Liquid/Liquid Interface by Scanning Electrochemical Microscopy” (Analytical Chemistry, 2025)
# What was measured:
# [1] = system: NPCs of micropore-supported nuclear envelope (NE); assay: Steady-state SECM approach-curve measurement of NPC permeability to GRn; type: in vitro ADME, Xenopus laevis; conditions: SECM approach curve at centre of micropore-supported NE patch, 10 μm-diameter micropipet, MIB; 8.6 μM GR25 or 130 μM GR5; finite element fit, homogeneous model; fit uncertainty ±20%
# Description: The nucleus was isolated from the stage VI oocyte of an adult female X. laevis frog (Ecocyte Bioscience, Austin, Texas) to spread the NE on a microporous Si3N4 membrane, as reported elsewhere.[24] The large nucleus (∼0.4 mm in diameter) was isolated in the isotonic 1.5% PVP solution of mock intracellular buffer (MIB) at pH 7.4. MIB contains 90 mM KCl, 10 mM NaCl, 2 mM MgCl2, 1.1 mM EGTA, 0.15 mM CaCl2, and 10 mM HEPES, where free Ca^2+ was buffered at the physiological level of ∼200 nM in oocytes.[39] The spread NE was adhered to the membrane treated with Cell-Tak (Corning, Corning, New York).
# A home-built SECM instrument[40] with a potentiostat (CHI 7042E, CH Instruments, Austin, Texas) was controlled by using a custom LabVIEW program (National Instruments, Austin, Texas).[41] Tapered micropipets were obtained from borosilicate glass capillaries (o.d./i.d. = 1.0 mm/0.58 mm, 10 cm in length) using a CO2-laser capillary puller (model P-2000 Sutter Instrument, Novato, California). […]
# We employed DNNS-doped micropipets to measure the similar steady-state permeability of the NPCs to GRn. […] The strong transient response to GR25 is attributed to the dissociation of GR25 from the NPC as induced by an SECM tip and was investigated quantitatively by chronoamperometry below to confirm strong NPC–GR25 interactions. […]
# [2] = extra-thermodynamic assumption (tetraphenylarsonium/tetraphenylborate); cited from earlier work
# From the text: We calibrated the potential of the NB phase against the aqueous phase by using an extra-thermodynamic assumption (Figure 3) to calculate the free energy change in GRn transfer, as discussed later. Specifically, it was assumed that the free energies of tetraphenylarsonium and tetraphenylborate transfer across the interface are identical.[36] […] Half-wave and formal potentials are identical for electrochemically reversible transfer of tetrabutylammonium.
Compound,"steady-state permeability, kss, through the NE [1]",formal potential of transfer across the NB/water interface [2]
N=C(N)NCCC[C@H](NC(=O)CNC(=O)[C@H](CCCNC(=N)N)NC(=O)CNC(=O)[C@H](CCCNC(=N)N)NC(=O)CNC(=O)[C@H](CCCNC(=N)N)NC(=O)CNC(=O)[C@H](CCCNC(=N)N)NC(=O)CNC(=O)[C@H](CCCNC(=N)N)NC(=O)CNC(=O)[C@H](CCCNC(=N)N)NC(=O)CNC(=O)[C@H](CCCNC(=N)N)NC(=O)CNC(=O)[C@H](CCCNC(=N)N)NC(=O)CNC(=O)[C@H](CCCNC(=N)N)NC(=O)CNC(=O)[C@H](CCCNC(=N)N)NC(=O)CNC(=O)[C@H](CCCNC(=N)N)NC(=O)CNC(=O)[C@H](CCCNC(=N)N)NC(=O)CNC(=O)[C@H](CCCNC(=N)N)NC(=O)CNC(=O)[C@H](CCCNC(=N)N)NC(=O)CNC(=O)[C@H](CCCNC(=N)N)NC(=O)CNC(=O)[C@H](CCCNC(=N)N)NC(=O)CNC(=O)[C@H](CCCNC(=N)N)NC(=O)CNC(=O)[C@H](CCCNC(=N)N)NC(=O)CNC(=O)[C@H](CCCNC(=N)N)NC(=O)CNC(=O)[C@H](CCCNC(=N)N)NC(=O)CNC(=O)[C@H](CCCNC(=N)N)NC(=O)CNC(=O)[C@H](CCCNC(=N)N)NC(=O)CNC(=O)[C@H](CCCNC(=N)N)NC(=O)CNC(=O)[C@H](CCCNC(=N)N)NC(=O)CN)C(=O)O [GR25],7.2 × 10^–3 cm/s,–
CCCC[N+](CCCC)(CCCC)CCCC [tetrabutylammonium],–,0.29 V
